From ChEMBL document CHEMBL1201862, “PubChem BioAssay data set” (2004)
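Briefly, cells in 96-well plates were exposed to five compound concentrations for 48 h, and endpoints were estimated by linear interpolation. Here, GI50 denotes the concentration required for 50% inhibition of growth.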 Activity calls are given as the source filed them. Rule as the data show it: active = GI50 up to about 1.1 µM and inactive = higher.

Key:
Experiment in all cases: NCI anticancer screen, dose series, 48 h
[1] = tested on: 786-0
[2] = tested on: A498
[3] = tested on: A549
[4] = tested on: CAKI-1
[5] = tested on: CCRF-CEM
[6] = tested on: COLO 205
[7] = tested on: DU-145
[8] = tested on: EKVX
[9] = tested on: HCC 2998
[10] = tested on: HCT-116
[11] = tested on: HCT-15
[12] = tested on: HL-60
[13] = tested on: HOP-62
[14] = tested on: HOP-92
[15] = tested on: HT-29
[16] = tested on: Hs-578T
[17] = tested on: IGROV-1
[18] = tested on: K562
[19] = tested on: KM12
[20] = tested on: LOX IMVI
[21] = tested on: M14
[22] = tested on: MCF7
[23] = tested on: MDA-MB-231
[24] = tested on: MDA-MB-435
[25] = tested on: MDA-N
[26] = tested on: MOLT-4
[27] = tested on: Malme-3M
[28] = tested on: NCI-H226
[29] = tested on: NCI-H460
[30] = tested on: NCI-H522
[31] = tested on: NCI/ADR-RES
[32] = tested on: OVCAR-3
[33] = tested on: OVCAR-5
[34] = tested on: OVCAR-8
[35] = tested on: PC-3
[36] = tested on: RXF 393
[37] = tested on: SF-268
[38] = tested on: SF-295
[39] = tested on: SF-539
[40] = tested on: SK-MEL-28
[41] = tested on: SK-MEL-2
[42] = tested on: SK-MEL-5
[43] = tested on: SK-OV-3
[44] = tested on: SN12C
[45] = tested on: SNB-75
[46] = tested on: SR
[47] = tested on: SW-620
[48] = tested on: T47D
[49] = tested on: TK-10
[50] = tested on: U-251
[51] = tested on: UACC-257
[52] = tested on: UACC-62

SMILES: C[C@]12CCC(=O)O[C@H]1CCCCO2
- GI50 [1]: > 100 µM (inactive)
- GI50 [2]: > 100 µM (inactive)
- GI50 [3]: > 100 µM (inactive)
- GI50 [4]: > 100 µM (inactive)
- GI50 [5]: > 100 µM (inactive)
- GI50 [6]: > 100 µM (inactive)
- GI50 [7]: > 100 µM (inactive)
- GI50 [8]: > 100 µM (inactive)
- GI50 [9]: > 100 µM (inactive)
- GI50 [10]: > 100 µM (inactive)
- GI50 [11]: > 100 µM
- GI50 [12]: > 100 µM (inactive)
- GI50 [13]: > 100 µM (inactive)
- GI50 [14]: 28.1 µM (inactive)
- GI50 [15]: > 100 µM (inactive)
- GI50 [16]: > 100 µM (inactive)
- GI50 [17]: > 100 µM (inactive)
- GI50 [18]: > 100 µM (inactive)
- GI50 [19]: > 100 µM (inactive)
- GI50 [20]: > 100 µM (inactive)
- GI50 [21]: > 100 µM (inactive)
- GI50 [22]: > 100 µM (inactive)
- GI50 [23]: > 100 µM (inactive)
- GI50 [24]: > 100 µM (inactive)
- GI50 [25]: > 100 µM (inactive)
- GI50 [26]: > 100 µM (inactive)
- GI50 [27]: > 100 µM (inactive)
- GI50 [28]: > 100 µM (inactive)
- GI50 [29]: > 100 µM (inactive)
- GI50 [30]: > 100 µM (inactive)
- GI50 [31]: > 100 µM (inactive)
- GI50 [32]: > 100 µM (inactive)
- GI50 [33]: > 100 µM (inactive)
- GI50 [34]: > 100 µM (inactive)
- GI50 [35]: > 100 µM (inactive)
- GI50 [36]: > 100 µM (inactive)
- GI50 [37]: > 100 µM (inactive)
- GI50 [38]: > 100 µM (inactive)
- GI50 [39]: > 100 µM (inactive)
- GI50 [40]: > 100 µM (inactive)
- GI50 [41]: > 100 µM (inactive)
- GI50 [42]: > 100 µM (inactive)
- GI50 [43]: > 100 µM (inactive)
- GI50 [44]: > 100 µM (inactive)
- GI50 [45]: 87.5 µM (inactive)
- GI50 [46]: > 100 µM (inactive)
- GI50 [47]: > 100 µM (inactive)
- GI50 [48]: > 100 µM (inactive)
- GI50 [49]: > 100 µM (inactive)
- GI50 [50]: > 100 µM (inactive)
- GI50 [51]: > 100 µM (inactive)
- GI50 [52]: > 100 µM (inactive)
